This data set is described as follows: Human HepG2 cell viability assay in 384 well format. Format: toxicity, cell-based. Further details: dose 125 nL, time 70.5 hour; concentration not given beside the values. As to conditions: HepG2 cells, read-out: Inhibition.
For the compound `CCOC(=O)CNC(=O)N1CCC(OC)c2ccccc2N(C)C(=O)C1` (stereo not drawn), the cytotoxicity at 70.5 h is -6.05%.
To `Cc1nnc(C2CCN(C(=O)c3cnc4ccccc4n3)CC2)s1` belongs -2.76%; to `CC(C)c1noc(-c2ccnc(-n3cnc(C(=O)O)c3)c2)n1`, -14.7%.
For `COCC(C)N(C)C(=O)NC1CCN(S(C)(=O)=O)CC1` (stereo not drawn), the cytotoxicity at 70.5 h was -6.45%.
As to `Cc1ccc(C2(O)CCN(C(=O)CCn3ccc(=O)[nH]c3=O)CC2)nc1`, the cytotoxicity at 70.5 h is -10.1%.
As to `CN(CC1COc2ccccc2O1)C(=O)NCCCn1cccn1` (stereo not drawn), the cytotoxicity at 70.5 h was -8.71%.
Then `O=C(NCCNC1CCCC1)c1cccs1`, with -6.72%.
Then `O=C(c1cccnc1Oc1ccccc1)N1CCCn2ncnc21`, with 4.54%; and `CCCS(=O)(=O)N1C[C@@H](OCc2ccncc2)[C@H]2OCCC[C@H]21`, with -7.43%; and `O=C(CCn1ccnc1)N1CCCC(n2cncn2)C1` (stereo not drawn), with 10.1%.
To `Nc1nc(NCCc2[nH]nc3c2CCCC3)cc(N2CCOCC2)n1` belongs -6.18%; to `O=C1O[C@@H]2CN(Cc3ccccc3)C[C@@H]2N1CCCN1CCOCC1`, -7.7%; to `O=C1NCCO[C@H]2CN(C(=O)Cc3ccco3)CC[C@@H]12`, -5.72%.
`CC(=O)N1CCCC1c1cccc(Cc2ccccc2Cl)n1` (stereo not drawn): the cytotoxicity at 70.5 h turned out to be 0.0226%.
As to `CN(C)C(=O)c1nn(C)c2c1CN(Cc1ccc(F)cc1)C2`, the cytotoxicity at 70.5 h is -6.32%.
For `CCCc1cc(C(=O)N2Cc3ccccc3C2)[nH]n1`, the cytotoxicity at 70.5 h is 6.06%.
With `Cc1nc(CN(C)S(=O)(=O)c2ccc(F)cc2Br)no1`, the cytotoxicity at 70.5 h came to 14.6%.
Then `CCc1nnc(N2CCN(CCc3ccccc3)C(=O)C2)o1`, with -2.76%; and `CC(=O)Nc1cc(CN(C)C)ccc1C`, with -6.9%.
Then `CCN1CCC(CC(=O)N2CCN(c3ccccc3OC)CC2C)CC1` (stereo not drawn), with 23.7%; and `CCN(CC)C(=O)c1ccn(COc2ccccc2)n1`, with -7.93%.
To `CSc1ccc(NC(=O)NCC2CCCO2)cc1F` (stereo not drawn) belongs 11.2%; to `CCCc1noc(CCC(=O)N2CCCC2c2noc(C3CC3)n2)n1` (stereo not drawn), -16.9%.
Consider `CCC(O)CN1CCN(C(=O)c2cccn2Cc2ccncc2)CC1` (stereo not drawn), for which the cytotoxicity at 70.5 h amounted to 21.3%.
In the case of `Cn1ncc(Cl)c1C(=O)NCCN1CCC(O)(c2ccc(F)cc2)CC1`, the cytotoxicity at 70.5 h was 5.46%.
On to `CCNC(=O)Nc1ccc2c(ccn2CC(=O)N(CC)CC)c1`, for which the cytotoxicity at 70.5 h is -0.739%.
To `COc1ccc(-n2ncc(C(C)NC3CCSCC3)c2C)cc1` (stereo not drawn) belongs -4.41%.
To `c1csc(CN2CCO[C@H]3[C@H](OCCN4CCCC4)CC[C@@H]32)n1` belongs -11.1%.
To `CCCc1cc(C(=O)N(C)Cc2cccc3cnccc23)n(C)n1` belongs -2.24%; to `CCN(c1ccc(C(=O)NCc2ccnc(C)n2)cc1)C(C)C`, -8.68%.
Take `CCn1ncnc1CN1CCc2[nH]cnc2C1c1ccccn1` (stereo not drawn): the cytotoxicity at 70.5 h was determined as 14.3%.
To `CN(Cc1ccc(Cl)s1)C(=O)CN1CC(n2cccn2)C1` belongs -14.6%.
For `O=C(O)[C@H]1C[C@@H](C(=O)NCc2ccncc2)CN(Cc2ccccc2)C1`, the cytotoxicity at 70.5 h is -1.34%.
To `CC(C)n1nc(CN2CCCC2)c2c1CN(CC1CC1)CC2` belongs -1.54%; to `CC(C)[C@H]1COC(=O)N1CC(=O)N1CCN(C(=O)c2ccco2)CC1`, 8.43%.
To `CC(NCc1ccncc1)c1ccc(N2CCN(C)CC2)c(F)c1` (stereo not drawn) belongs 4.11%; to `COc1c(CNCc2ccc3c(c2)OCCO3)c(C(C)C)nn1C`, -6.06%; to `Cc1nc(C)n(C2CCCN(C(=O)c3cc(C(N)=O)cs3)C2)n1` (stereo not drawn), -17.1%.
To `CSc1ccc(CN(C)C(=O)c2cc3c([nH]c2=O)CCCC3=O)cc1` belongs -2.82%; to `CN(C)C(=O)C1CN(Cc2ccc(C#N)cc2F)c2ccccc2O1` (stereo not drawn), -0.947%; to `COCCCNC(=O)CN1CCSC(c2ccccc2)C1` (stereo not drawn), 3.9%.
In the case of `O=C(NCCCNC(=O)C1CCC1)NCCn1cccc1`, the cytotoxicity at 70.5 h is -5.85%.
For the compound `CC(C)c1nc(COc2cccc3c2NC(=O)CO3)cs1`, the cytotoxicity at 70.5 h came out at 13.8%.
To `COc1nc2cc(C)ccc2cc1CN(C)Cc1n[nH]c2c1CCCC2` belongs 2.69%; to `CC(C)(C)CC(=O)N1CC[C@@H]2[C@H](CC1)N(S(C)(=O)=O)CCS2(=O)=O`, -5.98%.
Turning to `CSCC[C@H](N)C(=O)NCc1cc2n(n1)CCCN(C1CCCCC1)C2`, the cytotoxicity at 70.5 h is -5.05%.
To `CC(C)(C)n1ncc2c1CCCC2NCc1cccc2c1OCO2` (stereo not drawn) belongs -1.84%.
Then `O=C(NC1CC1)[C@H]1C[C@H]2OCC[C@H]2N(Cc2ccco2)C1`, with -8.44%; and `CNC(=O)C1(C)CN(c2nnc(C)c3ccccc23)CCO1` (stereo not drawn), with -6.81%; and `Cc1nc(N2CCN3CCCCC3C2)nc2cc(S(C)(=O)=O)ccc12` (stereo not drawn), with 0.525%.
For `Cc1cnn(CC(C)NCc2nc(-c3ccccn3)no2)c1` (stereo not drawn), the cytotoxicity at 70.5 h was -7.46%.
On to `O=C(c1ccnnc1)N1C[C@H](Oc2cccnc2)[C@H]2OCCC[C@H]21`, for which the cytotoxicity at 70.5 h worked out at 3.85%.
Then `Cc1cc(OCC(=O)NS(=O)(=O)c2c(C)noc2C)ccc1Cl`, with -7.45%; and `O=C(CSC1=NS(=O)(=O)c2cc(F)ccc2N1)Nc1ccc(Cl)c(Cl)c1`, with 19.7%; and `Cc1ccsc1C(CNC(=O)c1cc(=O)[nH]c(=O)[nH]1)N(C)C` (stereo not drawn), with 17.7%.
To `O=C(NCc1ccc(F)cc1)NCC1(N2CCOCC2)CCSC1` (stereo not drawn) belongs 7.3%; to `O=S(=O)(C1CC1)N1CCC2(CC1)COC(COc1ccccn1)C2` (stereo not drawn), -5.06%; to `Cn1ccnc1CN1CCC2(CC1)COCCN(c1ncccn1)C2`, -5.62%.
For `Cc1noc(C)c1-c1nc(N(C)CCN(C)C)ncc1-c1cnccn1`, the cytotoxicity at 70.5 h was -6.02%.
As for `O=C(NCc1ccco1)[C@H]1C[C@@H]2CCN(c3ncccn3)C[C@H]2O1`, the cytotoxicity at 70.5 h is -5.11%.
To `CN(Cc1ccncc1)C1CCC[C@@H]2CN(c3ncccn3)C[C@H]12` (stereo partly drawn) belongs -2.1%.
For `O=C1C[C@H]2CC[C@@H](CN1)N2C(=O)CCc1ccc2c(c1)OCO2`, the cytotoxicity at 70.5 h was -12.8%.
In the case of `CCN1CCC(CNC(=O)Nc2cc(C)on2)C1` (stereo not drawn), the cytotoxicity at 70.5 h was -4.44%.
To `COc1ccc(SC(C)C(=O)N2CCC(C(N)=O)CC2)cc1` (stereo not drawn) belongs -14.1%.
Consider `CC(C)C1CN(c2cnccn2)CCC(=O)N1Cc1ccc(F)cc1` (stereo not drawn), for which the cytotoxicity at 70.5 h was -0.619%.
For `CCNc1cc2c(nn1)CCN(C(=O)c1ccsc1)C2`, the cytotoxicity at 70.5 h is -3.61%.
Then `Cc1cc(CC2COc3ccccc3C2)cnc1N` (stereo not drawn), with -13.2%.
To `O=c1n(Cc2ccccc2F)nc2ncccn12` belongs 21%; to `O=C1N(CCC2CCCCC2)CCCC1(O)CNCCc1ccccc1` (stereo not drawn), 0.277%; to `CS(=O)(=O)c1ccc(CNC(=O)N2CCC(c3ccccc3)CC2)cc1`, -2.27%.
For `c1cnc(N2CCOCC3(CCCN(Cc4cc[nH]n4)C3)C2)nc1` (stereo not drawn), the cytotoxicity at 70.5 h was -3%.
In the case of `O=C1NCCCCC1NS(=O)(=O)N1CCCCC1` (stereo not drawn), the cytotoxicity at 70.5 h is -10.6%.
On to `CC(C(=O)NCC(C)(C)c1ccc2c(c1)OCCO2)n1cncn1` (stereo not drawn), for which the cytotoxicity at 70.5 h came to 0.318%.
To `O=C(NCCCNc1ccccn1)NCC1CCS(=O)(=O)C1` (stereo not drawn) belongs -8.26%; to `Cc1cncc(C(=O)N2CCNCC2C(=O)Nc2ccc(C)nc2)c1` (stereo not drawn), -3.64%; to `COc1cc(CNCCc2cnn(C)c2)cc2c1OCCO2`, -12.1%.
For the compound `Cc1nc(O)cc(CN2CC=C(c3cnn(-c4ccccc4)c3)CC2)n1`, the cytotoxicity at 70.5 h was 14.1%.
Then `COc1cccc(C2CC(=O)Nc3nc(N4CCCCC4)sc32)c1OC` (stereo not drawn), with -6.7%.
Then `CCc1ccccc1OCCN1CCC(NS(C)(=O)=O)CC1`, with 3.87%; and `Fc1ccc(-c2noc3c2CN(CC2CC2)CC3)cc1F`, with -29.6%.
To `CCn1ncnc1C1CC(=O)NCc2nc(N)sc21` (stereo not drawn) belongs 27.6%.
`COc1ccc(N2CCN(C(=O)CCn3nnnc3C)CC2(C)C)cc1`: the cytotoxicity at 70.5 h amounted to 14%.
Then `COc1ccc(C)cc1CC(=O)NC1(C#N)CCOCC1`, with 29.1%.
On to `CCN(Cc1cccnc1)CC1CCCO1` (stereo not drawn), for which the cytotoxicity at 70.5 h was -0.83%.
For `CN(Cc1ccccn1)c1nccc(N2CCN[C@H]3CS(=O)(=O)C[C@H]32)n1`, the cytotoxicity at 70.5 h was found to be 8.37%.
To `CC(C)(C)c1ccc(C2(C(=O)NCCS(N)(=O)=O)CC2)cc1` belongs -9.31%; to `O=C(c1cnn(-c2ccccc2)c1)N1CCN(c2cnccn2)CC1`, -15.3%.
Take `CC1(C)CNC(=O)c2nc(-c3n[nH]c(=O)[nH]3)[nH]c2C1`: the cytotoxicity at 70.5 h was -5.75%.
`CCOc1ccc(CN2C(=O)CC(C)(C)C2=O)nc1`: the cytotoxicity at 70.5 h is 2.3%.
With `O=c1ccc2c([nH]1)CCC(NS(=O)(=O)C1CC1)C2` (stereo not drawn), the cytotoxicity at 70.5 h was -4.74%.
To `CCOC(=O)[C@@H]1[C@@H](c2ccccc2)CN2CCNC[C@H]12` belongs -11%.
To `CC(C)(CNC(=O)c1ccco1)CNC(=O)c1ccco1` belongs -1.35%.
On to `Cc1nc(C)c(CN2CCOC(CN(C)c3cccnn3)C2)s1` (stereo not drawn), for which the cytotoxicity at 70.5 h was -8.03%.
To `CC(Cc1ccco1)NS(=O)(=O)N1CCCCC1` (stereo not drawn) belongs -6.18%; to `Cc1noc(C)c1CS(=O)(=O)CC(=O)NCCc1ccccc1`, 15.9%.
Then `O=C(Cc1ccsc1)N1C[C@@H]2C[C@@H](c3nnc(C4CC4)o3)O[C@@H]2C1`, with 4.61%; and `CN1CCC(N(CCc2ccccc2)C(=O)c2ccc(CO)cc2)CC1`, with -11.1%; and `CC1c2ncc(COCc3ccccn3)n2CCN1C1CCCC1` (stereo not drawn), with -2.61%.

The record behind these values is ChEMBL document CHEMBL3507680, “University of Dundee, Gates Library screen for HepG2 cell viability”.
